{"source": "patent US5336769A", "about": "“Xanthine derivatives” (Kyowa Hakko Kogyo Co., Ltd., priority 1992, dated 1994)", "key": {"[1]": {"system": "scopolamine-induced amnesia models", "assay": "Anti-dementia effect in scopolamine-induced amnesia models, step-through type passive avoidance (recall trial)", "format": "in vivo, Male Wistar rats", "details": "oral, scopolamine 1 mg/kg i.p., 24 h after acquisition trial", "description": "The effect of Compound (I) on dementia was determined by scopolamine-induced amnesia models (Basic, Clinical, and Therapeutic Aspects of Alzheimer's and Parkinson's Diseases: Vol. 2; T. Nagatsu, et al. edt; pp449; Plenum Press New York; 1990).\n[…] The test was performed with a step-through type passive avoidance apparatus (the bright and dark box).\nThe bright and dark box was made up of a bright compartment (25×25×25 cm) lighted by 4W white fluorescent light and a dark compartment (25×25×25 cm). […] In order to give a foot shock, the electric current (2 mA: 2 sec) may be passed through the grid floor of the dark compartment.\nThe compound to be tested was suspended in 0.3% aqueous solution of carboxymethyl cellulose (CMC) and the suspension was orally administered 60 minutes before the acquisition trial. Only 0.3% CMC was given to the control group.\nAmnesia-inducing treatment was carried out by intraperitoneally administering 1 mg/kg of scopolamine 30 minutes before the following acquisition trial.\nThe training for acquisition of learning (acquisition trial) was carried out. The rat was introduced into the bright compartment, and after 5 to 10 seconds, the guillotine door was opened. The rat in the bright compartment rapidly moved into the dark compartment. As soon as the whole body of the rat entered the dark compartment, the guillotine door was closed and an electric current of 2 mA was passed through the grid floor for two seconds (foot shock). Immediately after the foot shock, the rat was taken out of the dark compartment.\nThe test trial for observing the retention and recall of the memory (recall trial) was carried out as follows. Twenty-four hours after the acquisition trial, the rat was placed in the bright compartment and the guillotine door was opened. The length of time before the rat entered the dark compartment (latency) was measured. The latency was measured up to 600 seconds and the latency longer than 600 seconds was recorded as 600 seconds.\nIn the experiment, the amnesia control group had undergone the amnesia-inducing treatment and the normal control group had not undergone the amnesia-inducing treatment.\nThe anti-dementia effect was evaluated by Mann Whitney U-test to determine whether there was a significant difference in latency between the test compound treated group and the amnesia control group."}, "dd strain male mice": {"system": "dd strain male mice", "assay": "Acute Toxicity Test, minimum lethal dose (MLD)", "format": "in vivo", "details": "oral, mortality 7 days after administration", "description": "Compounds 1 and 5 were orally administered to dd strain male mice (body weight: 20±1 g, 3 mice/group). The mortality was observed 7 days after the administration to determine the minimum lethal dose (MLD)."}}, "data": [{"smiles": "CCCn1c(=O)c2nc(C3CCCC3)[nH]c2n(CCc2ccc(NC(C)=O)cc2)c1=O", "note": "[Compound 1, 3-(4-acetylaminophenethyl)-8-cyclopentyl 1-propylxanthine]", "values": [{"measurement": "Recall trial mean reaction latency", "setting": "[1]; 0.02 mg/Kg, 17 animals", "result": "137.3 ± 44.5", "unit": "s"}, {"measurement": "Recall trial mean reaction latency", "setting": "[1]; 0.08 mg/Kg, 18 animals", "result": "174.8 ± 56.1", "unit": "s"}, {"measurement": "Recall trial mean reaction latency", "setting": "[1]; 0.31 mg/Kg, 18 animals", "result": "130.4 ± 38.5", "unit": "s"}, {"measurement": "Recall trial mean reaction latency", "setting": "[1]; 1.25 mg/Kg, 17 animals", "result": "170.3 ± 50.4", "unit": "s"}, {"measurement": "Recall trial mean reaction latency", "setting": "[1]; 5.0 mg/Kg, 18 animals", "result": "187.2 ± 50.2", "unit": "s"}, {"measurement": "Recall trial mean reaction latency", "setting": "[1]; 20.0 mg/Kg, 17 animals", "result": "116.2 ± 43.4", "unit": "s"}, {"measurement": "minimum lethal dose (MLD)", "setting": "dd strain male mice", "result": "> 300", "unit": "mg/kg"}]}, {"smiles": "CCCn1c(=O)c2[nH]c(C3CCCC3)nc2n(CCc2ccc(NC(=O)C3CCCC3)cc2)c1=O", "note": "[Compound 5, 3-[4-(cyclopentanecarbonylamino)-phenethyl]-8-cyclopentyl-1-propylxanthine]", "values": [{"measurement": "minimum lethal dose (MLD)", "setting": "dd strain male mice", "result": "> 300", "unit": "mg/kg"}]}]}
